pIC50: −log10 of the molar value.
System: Plasmodium falciparum
Assay: In vitro inhibition as IC50 against Plasmodium falciparum by [3H]hypoxanthine uptake
Assay type: functional, organism-based
Details: not given; call rule not given here

IC50 [µg/mL] | SMILES
0.16 | CCN(CC)CCCC(C)Nc1ccnc2cc(Cl)ccc12.O=P(O)(O)O.O=P(O)(O)O (centres undefined) [CHLOROQUINE PHOSPHATE]

Same assay, conditions: Plasmodium falciparum; read-out: IC50

pIC50 | SMILES
< 5.70 | COc1cc(C(c2c(O)oc3ccccc3c2=O)c2c(O)oc3ccccc3c2=O)cc(OC)c1OC
5.21 | COc1ccc(CC(=O)c2c(O)c3c(c(CC=C(C)C)c2OC)OC(C)(C)CC3)cc1
5.34 | COc1cccc(C(O)C2=CC(=O)c3ccccc3C2=O)c1OC (centres undefined)
5.10 | COc1ccc(C(O)C2c3c(cc4c(c3OC)OCO4)CCN2C)c(CO)c1OC (centres undefined)
5.52 | COc1ccccc1/C=C/C(=O)O [COUMARINIC ACID METHYL ETHER]

The remaining lines, values behind:

SMILES | pIC50
COc1ccc(/C(=N\O)c2nccc3cc(OC)c(OC)cc23)cc1OC | 4.70
COc1cc(C(=O)C(O)c2cc(OC)c(OC)c(OC)c2)cc(OC)c1OC (centres undefined) | 4.70
CCN(CC)c1ccc(NCC(O)c2cc(Cl)ccc2OC)cc1 (centres undefined) | 5.40
COc1ccc(C2OCC3(O)C(c4ccc(OC)c(OC)c4)OCC23)cc1OC (centres undefined) | 5.49
O=C1C=CC(=C(c2ccc(O)cc2)c2c(Cl)c(Cl)c(Cl)c(Cl)c2C(=O)O)C=C1 | 4.70
Cc1cc2c3c(c1-c1c(C)cc4c(C(C)C)c(O)c(O)c(C=N)c4c1O)OC1=C4C(=O)C(O)C(C(C)C)c5cc(C)c(-c6c(C)cc7c(C(C)C)c(O)c(O)c(C=O)c7c6O)c(c54)OC(=C3C(=O)C(O)C2C(C)C)N1 (centres undefined) | 5.18
COc1cccc(CN2CCCN(Cc3cccc(OC)c3O)C2c2ccc(N(CCCl)CCCl)cc2C)c1O | 5.92

System: Plasmodium falciparum
Assay: In vitro inhibition as IC50 against Plasmodium falciparum by [3H]hypoxanthine uptake; Not active
Assay type: functional, organism-based
Details: not given

SMILES | IC50
Cc1ccc(C(C)C)c(OP(=S)(S)Oc2cc(C)ccc2C(C)C)c1 | Not Active

Reference: ChEMBL document CHEMBL1135058, “New anti-malarial compounds from database searching” (Bioorg Med Chem Lett, 2002)
